Tests used:
Assay in all cases: relative viability (nuclei count vs DMSO), 5 days (fraction); higher = more cells survive
[1] = compound: C1=CC=C(C(=C1)C2=CC=C(C=C2)C3=CSC4=C3C(=C(C(=O)N4)C#N)O)O + CC(C)C[C@H](NC(=O)[C@H](Cc1ccccc1)NC(=O)c1cnccn1)B(O)O [Bortezomib] (partner 0.002 µM)
Outline: (§1)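 Relative viability was taken as the ratio of nuclei in treated wells to nuclei in vehicle wells. Lung cancer cell lines in 1536-well plates received compounds by pin tool one day after seeding, either one drug alone or a fixed anchor-drug dose plus five library-drug doses (not always all listed) in √10 steps. Nuclei were counted on 4× images after 5 days of treatment, and values are medians of duplicate plates.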

[2] = compound: C1=CC=C(C(=C1)C2=CC=C(C=C2)C3=CSC4=C3C(=C(C(=O)N4)C#N)O)O + C[C@]1(O)C[C@@H](c2nc(-c3ccc4ccc(-c5ccccc5)nc4c3)c3c(N)nccn32)C1 [Linsitinib] (partner 1 µM)
Outline: as §1

[3] = compound: C1=CC=C(C(=C1)C2=CC=C(C=C2)C3=CSC4=C3C(=C(C(=O)N4)C#N)O)O + N=C(N)NC(=N)NCCc1ccccc1 [Phenformin] (partner 250 µM)
Outline: as §1

Ricolinostat + Dasatinib = compound: O=C(CCCCCCNC(=O)c1cnc(N(c2ccccc2)c2ccccc2)nc1)NO [Ricolinostat] + Cc1nc(Nc2ncc(C(=O)Nc3c(C)cccc3Cl)s2)cc(N2CCN(CCO)CC2)n1 [Dasatinib] (partner 0.075 µM)
Outline: as §1

Cell Line	relative viability ([1]; first compound 0.08 µM)	relative viability ([1]; first compound 0.253 µM)	relative viability ([1]; first compound 0.8 µM)	relative viability ([1]; first compound 2.53 µM)	relative viability ([1]; first compound 8 µM)	relative viability ([2]; first compound 0.08 µM)	relative viability ([2]; first compound 0.253 µM)	relative viability ([2]; first compound 0.8 µM)	relative viability ([2]; first compound 2.53 µM)	relative viability ([2]; first compound 8 µM)	relative viability ([3]; first compound 0.08 µM)	relative viability ([3]; first compound 0.253 µM)	relative viability ([3]; first compound 0.8 µM)	relative viability ([3]; first compound 2.53 µM)	relative viability ([3]; first compound 8 µM)	relative viability (Ricolinostat + Dasatinib; first compound 0.08 µM)	relative viability (Ricolinostat + Dasatinib; first compound 0.253 µM)	relative viability (Ricolinostat + Dasatinib; first compound 0.8 µM)	relative viability (Ricolinostat + Dasatinib; first compound 2.53 µM)
HCC-366	1.04	1.14	1.34	0.682	0.642	0.819	0.786	0.795	0.657	0.451	0.632	0.623	0.584	0.646	0.591	0.487	0.613	0.576	0.451
HCC-827	0.967	1.05	1	1.08	1.07	1.02	1.04	0.995	0.993	0.955	0.396	0.377	0.424	0.387	0.394	0.24	0.363	0.287	0.361
HOP-62	0.805	0.632	0.783	0.742	0.505	1.19	1.15	0.97	1.05	0.736	0.57	0.854	0.565	0.679	0.359	0.533	0.669	0.655	0.423
IA-LM	0.672	1.13	0.879	1.01	0.58	0.479	1.9	0.198	0.855	0.376									
LC-2-ad	1	1.09	1.02	1	1.01	0.894	0.889	0.805	0.876	0.751	0.518	0.657	0.608	0.576	0.551	0.41	0.566	0.482	0.455
LCLC-97TM1	0.344	0.44		0.572	0.343	0.197	0.203	0.222	0.198	0.164	0.43	0.443	0.463	0.498	0.46	0.727	0.853	0.878	0.34
LCLC-103H	0.99	1.13	1.05	1.13	1.15	1.11	1.22	0.984	1.08	0.869	0.265	0.342	0.374	0.354	0.305	0.437	0.55	0.423	0.464
LK-2						0.34	0.553	0.479	0.717	0.344		0.466	0.376	0.661	0.245	0.34	0.271	0.444	0.35
LOU-NH91	0.428	0.496	0.449	0.515	0.443	0.903	1.06	0.878	0.911	0.89	0.716	0.726	0.655	0.616	0.63	0.453	0.543	0.558	0.533
LU99A	1.26	1.03	1.43	1.14	1	0.556	0.582	0.614	0.645	0.468	0.765	0.838	0.769	0.891	0.896	0.461	0.583	0.465	0.512
NCI-H358						0.868	0.742	0.69	0.914	0.595	0.25	0.39	0.373	0.353	0.283	0.164	0.168	0.146	0.187
NCI-H522											0.643	0.613	0.747	0.571	0.63	0.867	0.884	0.946	0.872
NCI-H1299	1.07	1.04	0.995	1	0.975	0.848	1	0.852	1.01	0.912									
NCI-H1395							1.89	1.13	1.03	1.38	0.41	0.435	0.396	0.437	0.399		0.383	0.368	0.403
NCI-H1623											0.623	0.623	0.569	0.568	0.534	0.484	0.612	0.528	0.475
NCI-H1650		0.241	0.228	0.207	0.207						0.406	0.358	0.437	0.439	0.362	0.275	0.381	0.289	0.287
NCI-H1703	0.28	0.395	0.289	0.301	0.38	0.803	0.446	0.589	0.507	0.76									
NCI-H1793						0.679	1.12	0.747	0.856	0.508	0.306	0.427	0.372	0.318	0.229		0.397	0.348	0.322
NCI-H1944						1.19	1.18	1.09	1.14	1.19	0.155	0.207	0.166	0.215	0.175	0.189	0.212	0.194	0.201
NCI-H2170											0.38	0.423	0.441	0.403	0.375	0.537	0.733	0.626	0.666
NCI-H2342											0.578	0.704	0.58	0.602	0.469	0.32	0.311	0.365	0.293
SK-MES-1						1.18	1.17	0.952	1.03	0.987	0.643	0.682	0.659	0.708	0.615	0.25	0.288	0.451	0.44
SW 900											0.484	0.895	0.534	0.638	0.405	0.495	0.578	0.662	0.352
